Data set [1] can be described thus: in vitro. Format: cell-based, human. The note with it: human, HEK293T Viability at 30 µM [%]. Here is the method:
Cytotoxic effects of test compounds on eukaryotic cells were investigated using a HEK293T cell viability assay. First, the cell density of a HEK293T culture was determined. […] The supernatant was then aspirated and fresh culture medium was added to 200 μL into which the test compounds were previously added. All substances were previously dissolved in DMSO. […] The viability of the cells was then examined by adding PrestoBlue® Cell Viability Agent (Invitrogen, Carlsbad, CA, USA). The supernatant was removed, 10% PrestoBlue® was added in preheated PBS and the culture was incubated for 30 min at 37 °C. In cells with an active metabolism, the PrestoBlue dye is reduced, causing it to fluorescence. The fluorescence (λex = 560 nm, λem = 590 nm) was measured in an EnVision Multilable Plate Reader (Perkin Elmer, Waltham, MA, USA; integration time 0.1 sec/well).

The target in data set [2] is rPfGSK-3 (Plasmodium falciparum, UniProt O77344). The data set can be described thus: KinaseGlo Plus assay for inhibition of PfGSK-3. Format: biochemical. The note with it: 10 µM; remaining activity, calculated on DMSO controls; Table 3; read-out: rPfGSK-3 Activity at 10 µM [%].
Data set [3] has as its system erythrocytic forms of P. falciparum (strain 3D7). Briefly: Viability screening of antiplasmodial activity (SYBR-gold DNA quantification, 96 h). Format: cell-based, Plasmodium falciparum. The note with it: for activity at 0.3 µM / activity at 3 µM / IC50: Plasmodium falciparum; for activity at 0.3 µM / activity at 3 µM: 96 h, strain 3D7, calculated on DMSO controls; for activity at 0.3 µM: read-out: Parasitemia (3D7) at 0.3 µM [%]; for activity at 3 µM: read-out: Parasitemia (3D7) at 3 µM [%]; for SI (Selectivity index for 3D7 erythrocytic forms versus HEK293 cells): 3D7 versus HEK293 cells; for IC50: 3D7, strain 3D7, erythrocytic forms; for IC50 (3D7) [nM]: strain 3D7, erythrocytic forms; for activity at 3 µM / antiplasmodial activity at the concentration investigated (in words): 3 µM.

Counter-ions that a name gives are not always drawn.

As usually defined, the viability is a read-out of living cells in per cent, often relative to untreated cells. Usually IC50 stands for the point on the concentration scale where inhibition reaches its midpoint.

rPfGSK-3, sequence (O77344 entry or part of it): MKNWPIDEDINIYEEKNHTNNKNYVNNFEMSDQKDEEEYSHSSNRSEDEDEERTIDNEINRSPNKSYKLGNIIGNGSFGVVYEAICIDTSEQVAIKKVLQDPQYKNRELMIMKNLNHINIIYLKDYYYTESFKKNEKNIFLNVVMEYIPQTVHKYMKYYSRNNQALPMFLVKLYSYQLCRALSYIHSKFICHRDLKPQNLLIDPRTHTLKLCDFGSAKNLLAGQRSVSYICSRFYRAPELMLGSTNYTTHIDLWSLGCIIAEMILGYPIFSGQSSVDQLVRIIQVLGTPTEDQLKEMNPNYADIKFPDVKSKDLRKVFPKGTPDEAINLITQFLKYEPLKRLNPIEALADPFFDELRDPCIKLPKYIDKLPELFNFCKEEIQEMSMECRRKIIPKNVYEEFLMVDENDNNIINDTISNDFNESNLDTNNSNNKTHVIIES

On to `N#Cc1c(N)nc2sc(C(=O)Nc3ccccc3Cl)c(N)c2c1-c1cccc(Cl)c1` [Compound 9c, 3,6-Diamino-N-(2-chlorophenyl)-4-(3-chlorophenyl)-5-cyanothieno[2,3-b]pyridine-2-carboxamide], for which, in data set [1], the viability at 48 h, 30 µM was 99.3 ± 5.3%. The remaining activity at 10 µM in data set [2] was 99 ± 14.1%. Further, in data set [3], the activity at 0.3 µM was 69.2 ± 26% and the activity at 3 µM was 40 ± 15.9%.
For `CC(C)(C)OC(=O)N1CCN(c2ccc(-c3c(C#N)c(N)nc4sc(C(=O)Nc5cccc(Cl)c5)c(N)c34)c(Cl)c2)CC1` [Compound 9p, tert-Butyl 4-(3-chloro-4-{3,6-diamino-2-[(3-chlorophenyl)carbamoyl]-5-cyanothieno[2,3-b]pyridin-4-yl}phenyl)piperazine-1-carboxylate] the same measures were 104 ± 14.1%, 111 ± 12.1%, 48.3 ± 18% and 5.4 ± 3.2%.
For `Cc1cccc(-c2c3c(nc4sc(C(=O)Nc5ccc(Cl)cc5)c(N)c24)CCC3)c1` [Compound 17f, 3-Amino-N-(4-chlorophenyl)-4-(3-methylphenyl)-6,7-dihydro-5H-cyclopenta[b]thieno[3,2-e]pyridine-2-carboxamide], the viability at 48 h, 30 µM in data set [1] came out at 72.4 ± 23.4%. Besides, the remaining activity at 10 µM in data set [2] was 103 ± 6.2%. Moreover, in data set [3], the “SI (Selectivity index for 3D7 erythrocytic forms versus HEK293 cells)” value was more than 100, the IC50 was 19.2 nM, the activity at 0.3 µM was 9.1 ± 16.1% and the activity at 3 µM was 1 ± 14.9%. Besides, the “IC50 (3D7) [nM]” value in data set [3] is on record as “two-digit nanomolar range”.
With `N#Cc1c(N)nc2sc(C(=O)Nc3cccc(Cl)c3)c(N)c2c1-c1ccc(N2CCCC2)cc1Cl` [Compound 9s, 3,6-Diamino-4-[2-chloro-4-(pyrrolidin-1-yl)phenyl]-N-(3-chlorophenyl)-5-cyanothieno[2,3-b]pyridine-2-carboxamide], the viability at 48 h, 30 µM in data set [1] is 114 ± 40.3%. Also, the remaining activity at 10 µM in data set [2] is 113 ± 15.9%. Further, in data set [3], the activity at 0.3 µM was 78.3 ± 15.2% and the activity at 3 µM was 4.8 ± 5%.
Turning to `Nc1c(C(=O)Nc2ccc(Cl)cc2)sc2nc3c(c(-c4ccccc4)c12)CCCC3` [Compound 17d, 3-Amino-N-(4-chlorophenyl)-4-phenyl-5,6,7,8-tetrahydrothieno[2,3-b]quinoline-2-carboxamide], in data set [2], the remaining activity at 10 µM is 106 ± 10.6%. Also, in data set [3], the activity at 0.3 µM is 6.2 ± 5.7% and the activity at 3 µM is 8.4 ± 17.5%.
In the case of `Cc1cccc(-c2c(C(=O)OC(C)(C)C)c(C)nc3sc(C(=O)Nc4ccc(Cl)cc4)c(N)c23)c1` [Compound 17h, tert-Butyl 3-amino-2-[(4-chlorophenyl)carbamoyl]-6-methyl-4-(3-methylphenyl)thieno[2,3-b]pyridine-5-carboxylate], the viability at 48 h, 30 µM in data set [1] is less than 50%. Also, the remaining activity at 10 µM in data set [2] was 106 ± 5.3%. Further, in data set [3], the activity at 0.3 µM was 11.8 ± 12.3% and the activity at 3 µM was 2.3 ± 14.5%.
For `CN(CCN)c1ccc(-c2c(C#N)c(N)nc3sc(C(=O)Nc4cccc(Cl)c4)c(N)c23)c(Cl)c1` [Compound 9ae, 3,6-Diamino-4-{4-[(2-aminoethyl)(methyl)amino]-2-chlorophenyl}-N-(3-chlorophenyl)-5-cyanothieno-[2,3-b]pyridine-2-carboxamide hydrochloride] the same measures were -8.5 ± 7.4%, 101 ± 20.2%, 1.7 ± 4.2% and 2.7 ± 7.8%.
Take `Cc1cccc(-c2c(C(=O)O)c(C)nc3sc(C(=O)Nc4ccc(Cl)cc4)c(N)c23)c1` [Compound 17i, 3-Amino-2-[(4-chlorophenyl)carbamoyl]-6-methyl-4-(3-methylphenyl)thieno[2,3-b]pyridine-5-carboxylic acid]: the viability at 48 h, 30 µM in data set [1] is 87.6 ± 19.6%. Besides, in data set [2], the remaining activity at 10 µM was 106 ± 8%. For the same compound, in data set [3], the “antiplasmodial activity at the concentration investigated (in words)” value is “only low”, the activity at 0.3 µM is 99.8 ± 18.8% and the activity at 3 µM was 62.4 ± 21.5%.
As to `Cc1nc2sc(C(=O)Nc3ccc(Cl)cc3)c(N)c2c(-c2ccccc2)c1C(=O)OC(C)(C)C` [Compound 17g, tert-Butyl 3-amino-2-[(4-chlorophenyl)carbamoyl]-6-methyl-4-phenylthieno[2,3-b]pyridine-5-carboxylate], the viability at 48 h, 30 µM in data set [1] stood at 56.9 ± 31.3%. In addition, the remaining activity at 10 µM in data set [2] is 101 ± 5.5%. In data set [3], the “SI (Selectivity index for 3D7 erythrocytic forms versus HEK293 cells)” value is listed as more than 100, the half-maximal inhibitory concentration (IC50) came out at 25.3 nM, the activity at 0.3 µM is 11.7 ± 10.1% and the activity at 3 µM was 9.8 ± 15.1%. Besides, in data set [3], the “IC50 (3D7) [nM]” value is given as “two-digit nanomolar range”.
Consider `N#Cc1c(N)nc2sc(C(=O)Nc3ccc(F)cc3)c(N)c2c1-c1cccc(Cl)c1` [Compound 9d, 3,6-Diamino-4-(3-chlorophenyl)-5-cyano-N-(4-fluorophenyl)thieno[2,3-b]pyridine-2-carboxamide], for which the viability at 48 h, 30 µM in data set [1] is 83 ± 21.6%. For the same compound, the remaining activity at 10 µM in data set [2] was 69.7 ± 16.6%. For the same compound, in data set [3], the activity at 0.3 µM is 88.5 ± 17.6% and the activity at 3 µM was 3.5 ± 3.5%.
Turning to `Cc1cc(-c2ccc(N3CCN(C(=O)OC(C)(C)C)CC3)cc2Cl)c2c(N)c(C(=O)Nc3ccc(Cl)cc3)sc2n1` [Compound 17l, tert-Butyl 4-(4-{3-amino-2-[(4-chlorophenyl)carbamoyl]-6-methylthieno[2,3-b]pyridin-4-yl}-3-chloro-phenyl)piperazine-1-carboxylate], the viability at 48 h, 30 µM in data set [1] amounted to 68.4 ± 24.3%. Further, the remaining activity at 10 µM in data set [2] was 103 ± 12.9%. For the same compound, in data set [3], the “SI (Selectivity index for 3D7 erythrocytic forms versus HEK293 cells)” value is recorded as more than 100, the 50% inhibitory concentration (IC50) turned out to be 55.5 nM, the activity at 0.3 µM is 25.5 ± 14.4% and the activity at 3 µM is 1 ± 6.9%. The “IC50 (3D7) [nM]” value in data set [3] is given as “two-digit nanomolar range”.
As to `CN(CCNC(=O)OC(C)(C)C)c1ccc(-c2c(C#N)c(N)nc3sc(C(=O)Nc4cccc(Cl)c4)c(N)c23)c(Cl)c1` [Compound 9w, tert-Butyl {2-[(3-chloro-4-{3,6-diamino-2-[(3-chlorophenyl)carbamoyl]-5-cyanothieno[2,3-b]pyridin-4-yl}phenyl)(methyl)amino]ethyl}carbamate], in data set [1], the viability at 48 h, 30 µM was 76.1 ± 17.3%. Further, in data set [2], the remaining activity at 10 µM was 95.3 ± 8.6%. Moreover, in data set [3], the “SI (Selectivity index for 3D7 erythrocytic forms versus HEK293 cells)” value is more than 30, the 50% inhibitory concentration (IC50) turned out to be 860 nM, the activity at 0.3 µM was 50.1 ± 37.9% and the activity at 3 µM is 3.6 ± 2.4%.
`CC(C)(C)OC(=O)N1CCN(c2ccc(-c3c4c(nc5sc(C(=O)Nc6ccc(Cl)cc6)c(N)c35)CCCC4)c(Cl)c2)CC1` [Compound 17k, tert-Butyl 4-(4-{3-amino-2-[(4-chlorophenyl)carbamoyl]-5,6,7,8-tetrahydrothieno[2,3-b]quinolin-4-yl}-3-chlorophenyl)piperazine-1-carboxylate]: in data set [1], the viability at 48 h, 30 µM worked out at 84.3 ± 14.3%. Moreover, the remaining activity at 10 µM in data set [2] is 106 ± 18.7%. Moreover, in data set [3], the activity at 0.3 µM is 30 ± 24.9% and the activity at 3 µM was 2.6 ± 9%.
As to `N#Cc1c(N)nc2sc(C(=O)Nc3ccc(Cl)cc3)c(N)c2c1-c1cccc(Cl)c1` [Compound 9a, 3,6-Diamino-4-(3-chlorophenyl)-N-(4-chlorophenyl)-5-cyanothieno[2,3-b]pyridine-2-carboxamide], the viability at 48 h, 30 µM in data set [1] is 123 ± 8.4%. Further, the remaining activity at 10 µM in data set [2] is 80.3 ± 18.2%. For the same compound, in data set [3], the “SI (Selectivity index for 3D7 erythrocytic forms versus HEK293 cells)” value is listed as more than 70, half-maximal inhibition (IC50) required 410 nM, the activity at 0.3 µM is 23.1 ± 10.8% and the activity at 3 µM is 3.7 ± 3.6%.
Regarding `N#Cc1c(N)nc2sc(C(=O)Nc3cccc(Cl)c3)c(N)c2c1-c1ccc(N2CCOCC2)cc1Cl` [Compound 9r, 3,6-Diamino-4-(2-chloro-4-morpholinophenyl)-N-(3-chlorophenyl)-5-cyanothieno[2,3-b]pyridine-2carboxamide], in data set [1], the viability at 48 h, 30 µM was 105 ± 10%. The remaining activity at 10 µM in data set [2] was 108 ± 16.5%. Besides, in data set [3], the activity at 0.3 µM was 45.7 ± 17.2% and the activity at 3 µM is 2.8 ± 3.6%.
Turning to `CCCCCCCNC(=O)c1sc2nc(N)c(C#N)c(-c3cccc(C)c3)c2c1N` [Compound 9k, 3,6-Diamino-5-cyano-N-heptyl-4-(3-methylphenyl)thieno[2,3-b]pyridine-2-carboxamide], in data set [1], the viability at 48 h, 30 µM came to 54.3 ± 19.1%. In addition, the remaining activity at 10 µM in data set [2] is 84.7 ± 10.6%. In addition, in data set [3], the activity at 0.3 µM was 72.7 ± 28.2% and the activity at 3 µM was 84 ± 27%.
Turning to `Cc1nc2sc(C(=O)Nc3ccc(Cl)cc3)c(N)c2c(-c2ccccc2)c1C(=O)O` [Compound 17j, 3-Amino-2-[(4-chlorophenyl)carbamoyl]-6-methyl-4-phenylthieno[2,3-b]pyridine-5-carboxylic acid], the viability at 48 h, 30 µM in data set [1] was 95.8 ± 9.8%. The remaining activity at 10 µM in data set [2] is 108 ± 10.4%. Further, in data set [3], the “antiplasmodial activity at the concentration investigated (in words)” value is on record as “no”, the activity at 0.3 µM was 76.1 ± 23.1% and the activity at 3 µM is 97.1 ± 19.9%.
As for `Cc1cccc(-c2c(C#N)c(N)nc3sc(C(=O)NCCC4CC4)c(N)c23)c1` [Compound 9o, 3,6-Diamino-5-cyano-N-(2-cyclopropylethyl)-4-(3-methylphenyl)thieno[2,3-b]pyridine-2-carboxamide], in data set [2], the remaining activity at 10 µM was 60 ± 11.2%. In data set [3], the activity at 0.3 µM is 62.5 ± 23.5% and the activity at 3 µM was 40.8 ± 14.3%.

Values taken from publication PMC7397174, “4-Arylthieno[2,3-b]pyridine-2-carboxamides Are a New Class of Antiplasmodial Agents” (Molecules, 2020).
